Measurements: patent US11098006B2, “Lipids and complexes for the delivery of biologically-active material to cells” (RYBOQUIN COMPANY LTD, priority 2016, dated 2021)

Key:
COS.7 cells = settings: cited from earlier work
many cell types = settings: cited from earlier work
[1] = cited from earlier work
[2] = system: NIH3T3 murine fibroblasts; test: In vitro transfection with LPD formulations, luciferase reporter assay; format: cell-based; settings: NIH3T3 cells; LPD with peptide ME27 and plasmid pCI-Luc; FIG. 1
Description: (§1) Cells tested included 1HAEo-human airway epithelial cells, NIH3T3 murine fibroblasts, and Neuro2A murine neuroblastoma cells. Cells were seeded into 96-well plates at approximately 2×10^4 cells per well, then incubated overnight at 37° C. in complete growth medium. The following day, lipopolyplex (LPD) formulations were prepared essentially as described previously (Hart et al., 1998), by mixing the components in the following order: 50 μl of lipid (L) at 80 μg/ml in OptiMEM, 70 μl of peptide (P) at 110 μg/ml in OptiMEM and 50 μl of plasmid pCI-Luc (D) at 40 μg/ml in OptiMEM corresponding to a weight ratio of 2:4:1, respectively. […] The cells were incubated with the complexes for 4 h at 37° C. before replacing with fresh media for 24 h, after which reporter gene expression was analyzed by luciferase assay (Promega, Madison, Wis., USA). […]
(§2) Cells were washed once with PBS before the addition of 20 μl of 1× Reporter Lysis Buffer (Promega, Madison, Wis., USA) to the cells for 20 min at 4° C. before freezing at −80° C. for at least 30 min, followed by thawing at room temperature. Then the luciferase activity was measured during 10 seconds using the Luciferase Assay System (Promega, Madison, Wis., USA) and an Optima Fluostar plate reader (BMG Labtech). […] In vitro luciferase activity was expressed as Relative Light Units (RLU) per milligram of protein (RLU/mg).

[3] = Transmission electron microscope imaging of LPD particles; format: physicochemical; settings: peptide ME27; weight ratio 0.75:4:1 (L:P:D); FIG. 5 and FIG. 6
Excerpt: Transmission Electon Microscope images of LPD particles comprising FMM30 with peptide ME27 at a weight ratio of 0.75:4:1 (L:P:D) is shown in FIG. 5 (FMM30-PD-0.75) and lipids FMM30/DOPE at the same weight ratio is shown in FIG. 6 (FMM30/DOPE-PD 0.75).

[4] = Size of LPD nanoparticles by dynamic light scattering; format: physicochemical; settings: peptide ME27; weight ratio 0.75:4:1 (L:P:D); FIG. 7
Description: The size of LPD nanoparticles containing peptides ME27 with lipids FMM30 or FMM30/DPE were determined at different weight ratios of liposome to DNA (w/w) by dynamic light scattering using a NanoZS Zetasizer (Malvern).

[5] = system: 1HAEo- human airway epithelial cells; test: In vitro transfection with LPD formulations, luciferase reporter assay; format: cell-based; settings: 1HAEo- cells; LPD with peptide ME27 and plasmid pCI-Luc; FIG. 2
Description: as §1, §2

CCCCCCCCCCCCCCOCC(C[N+](C)(C)CCO)OCCCCCCCCCCCCCC.[Br-] (stereo not drawn) [DMRIE 7]
transfection activity of hydroxyalkyl cytofectins (COS.7 cells; compared with DOTMA 1): one of the more efficient lipids

CCCCCCCC/C=C\CCCCCCCCOCC(C[N+](C)(C)CCO)OCCCCCCCC/C=C\CCCCCCCC.[Br-] (stereo not drawn) [DORIE 6]
transfection efficacies in COS.7 cells (COS.7 cells; co-formulation with helper lipid DOPE 2, compared to lipids with hydroxypropyl-hydroxypentyl groups): higher transfection efficacies

CCCCCCCC/C=C\CCCCCCCC(=O)OCC(C[N+](C)(C)C)OC(=O)CCCCCCC/C=C\CCCCCCCC (stereo not drawn) [DOTAP 4]
levels of transfection in vitro (many cell types): comparable levels of transfection

CCCCCCCC/C=C\CCCCCCCCOCC(C[N+](C)(C)C)OCCCCCCCC/C=C\CCCCCCCC.[Cl-] (stereo not drawn) [DOTMA 1]
levels of transfection in vitro (many cell types): comparable levels of transfection | transfection activities in vivo [1]: exhibited higher transfection activities

CCCCCCCC/C=C\CCCCCCCCOCC(C[N+](C)(C)CCOCCOCCOCCOC(=O)CCCCCCC/C=C\CCCCCCCC)OCCCCCCCC/C=C\CCCCCCCC (stereo not drawn) [FMM30, (9Z)—N-(2,3-bis((9Z)-octadecenyloxy)propyl)-N,N-dimethyl-13-oxo-3,6,9,12-tetraoxatriacont-21-en-1-aminium bromide]
transfection levels [2]: far higher than the bi-chain lipid CH300 | particle size and shape in TEM images [3]: quite similar sizes with a combination of shapes including rods and spheres | size of LPD nanoparticles [4]: approximately 80 nm | transfection levels [5]: far higher than the bi-chain lipid CH300
